Results reported in paper PMC5768359, “Dietary quercetin potentiates the antiproliferative effect of interferon-α in hepatocellular carcinoma cells through activation of JAK/STAT pathway signaling by inhibition of SHP2 phosphatase” (Oncotarget, 2017).

How the values were obtained:
SHP2 = molecular target: T1, SHP2 (Homo sapiens, UniProt Q06124); assay: DiFMUP phosphatase assay with recombinant SHP2; supported by cellular thermal shift assay in HEK293A lysate; assay type: biochemical
T1 construct: gene PTPN11; GST-SHP2 (residues 205–593)
T1 sequence (Q06124 205-593): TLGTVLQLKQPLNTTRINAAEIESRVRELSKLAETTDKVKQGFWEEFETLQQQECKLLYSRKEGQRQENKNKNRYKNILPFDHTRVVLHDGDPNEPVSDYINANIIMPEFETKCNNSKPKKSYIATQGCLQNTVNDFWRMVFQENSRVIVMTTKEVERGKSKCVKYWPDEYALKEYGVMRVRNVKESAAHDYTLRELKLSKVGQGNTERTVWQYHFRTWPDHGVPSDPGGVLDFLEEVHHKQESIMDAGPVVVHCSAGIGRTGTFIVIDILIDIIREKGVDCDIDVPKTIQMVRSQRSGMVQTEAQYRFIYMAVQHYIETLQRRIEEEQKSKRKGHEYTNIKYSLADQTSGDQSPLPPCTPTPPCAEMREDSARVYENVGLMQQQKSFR

SHP1 = molecular target: T2, SHP1 (Homo sapiens, UniProt P29350); assay: DiFMUP phosphatase assay with recombinant SHP1; supported by thermal stability shift; assay type: biochemical
T2 construct: gene PTPN6
T2 sequence (P29350 whole entry): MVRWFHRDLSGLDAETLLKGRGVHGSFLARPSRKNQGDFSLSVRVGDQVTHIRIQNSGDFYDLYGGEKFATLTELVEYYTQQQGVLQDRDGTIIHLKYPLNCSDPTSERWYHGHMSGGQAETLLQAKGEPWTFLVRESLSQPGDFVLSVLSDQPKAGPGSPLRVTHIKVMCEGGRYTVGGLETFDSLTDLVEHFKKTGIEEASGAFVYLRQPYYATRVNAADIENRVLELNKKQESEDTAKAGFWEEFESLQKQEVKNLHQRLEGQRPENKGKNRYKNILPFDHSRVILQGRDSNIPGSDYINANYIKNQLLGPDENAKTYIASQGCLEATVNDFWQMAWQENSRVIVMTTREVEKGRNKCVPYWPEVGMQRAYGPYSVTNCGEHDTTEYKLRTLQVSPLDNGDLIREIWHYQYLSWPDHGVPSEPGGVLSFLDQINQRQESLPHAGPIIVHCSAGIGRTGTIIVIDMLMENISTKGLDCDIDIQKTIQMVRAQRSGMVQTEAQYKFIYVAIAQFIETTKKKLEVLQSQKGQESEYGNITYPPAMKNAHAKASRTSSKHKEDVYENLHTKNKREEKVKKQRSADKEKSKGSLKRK

## O=c1c(O)c(-c2ccc(O)c(O)c2)oc2cc(O)cc(O)c12 [quercetin]
SHP2
  IC50: 10.2 ± 0.21 µM
SHP1
  IC50: 31.1 ± 1.27 µM
